What follows are compounds tested on L929 cells (assay: TNF High Throughput Screen (TNF-α driven apoptosis assay)). Conditions: Mus musculus, compound at 1 μM, human TNF-α + actinomycin D, read-out: TNFα % Inh. @ 1 μM.
Format: cell-based, mouse
Excerpt: Description of Table V: The results shown in Table V were obtained using the TNF-α assays performed as described in the protocols entitled “Method for TNF High Throughput Screen” and “Method for VCAM High Throughput Screen”, which are detailed below. These assays measure a cellular response to TNF-α stimulation, and the data published in the table are expressed as percentage inhibitions. Percentage inhibition is computed on a scale of 0 to 100% where 0 percent inhibition means the compound has no effect in the assay (the response is indistinguishable from TNF-α treatment alone), and 100% inhibition means that when the compound is present at the stated concentration, the response in the assay is the same as if TNF-α were not added. These two assays measure two different outcomes of TNF-α treatment, cell death and Vascular Cell Adhesion Molecule (VCAM) expression, and capture two of TNF-α's many biological effects. TNF-α induced apoptosis is a mechanism by which TNF-α production during immune/inflammatory responses can lead to direct cellular and tissue damage. TNF-α VCAM expression in endothelial cells is a response that allows leukocytes to leave the blood and enter a site of immune/inflammatory response. Both of these activities could lead to pathology in immune/inflammatory diseases. In the first column of the table, the percentage inhibition of the TNF-α driven apoptosis assay when the compounds are tested at 1 μM concentration is presented. The second column in the table lists the IC50 for the compound, a standard measure using a dilution series in the assay, and fitting a sigmoidal curve to the resulting dose-response curve. The IC50 is the concentration (derived analytically from the sigmoidal function) at which the compound would inhibit 50% of the response in the assay. The third and fourth column list the corresponding analysis for the TNF-α driven VCAM assay. In Table VI, data corresponding to the data in column 1 of Table V is shown, with human cells replacing the mouse cells used in the high throughput screen. […] As a consequence, the compounds will have use in treating more than one TNF-α mediated condition, and may be selected according to the manner in which the condition manifests. This corresponds to the use of these compounds in the treatment of human disease.
TNF High Throughput Screen.
• 1. Plate 4×10^4 L929 cells in 100 μl of complete EMEM in Costar 96 well plates in PM. • 2. The next day, pretreat with compound, inhibitor and control vehicle for 2 hours. • 3. After 2 hours pretreatment, add 10 μl 5 ng/ml human TNF-α and actinomycin D (40 μg/ml final concentration). • 4. Incubate overnight. • 5. In AM, remove supernatant. • 6. Wash on a plate washer (0.9% NaCl). • 7. Add 100 μl Crystal Violet 0.1% in 20% ETOH. • 8. Incubate at RT for 10 minutes. • 9. Wash on plate washer. • 10. Air dry wells at 37° C. • 11. Add 100 μl of methanol to each well. • 12. Shake plates on orbital shaker and read at 595 nm on plate reader. VCAM High Throughput Screen: Protocol: • 1. Plate Primary human umbilical vein endothelial cells at 1.8×10^4 cells/well in a 96-well tissue culture plate. • 2. Return Plates to 37° C. incubator for 48-72 hours before assay. • 3. On assay day, aspirate wells and add 1804, of endothelial growth cell medium (EGM) to each well. • 4. Add Compound to each well. • 5. Shake plates for 3 minutes. • 6. Incubate plate for 1 hour at 37° C. • 7. Add Tumor Necrosis Factor (TNF) at 1.0 ng/ml final concentration. • 8. Shake plates for 3 minutes. • 9. Incubate plate for 2 hours at 37° C. • 10. Remove plate from incubator and wash plate 3 times with phosphate buffered saline (PBS) using a plate washer. • 11. Add anti-VCAM antibody at 0.5 μg/ml final concentration. • 12. Incubate at 4° C. overnight. • 13. Wash 3 times with PBS on plate washer. • 14. Add goat anti-mouse horseradish peroxidase conjugate. • 15. Incubate at room temperature for one hour. • 16. Wash 3 times with PBS on plate washer. • 17. […]

**Q.** Which inhibition at 1 µM does the source give for `N#Cc1cccc(C(C(=O)NC(c2ccccc2)c2ccccc2)N(CCc2c[nH]cn2)C(=O)c2ccccc2Oc2ccccc2)c1` (centres unmarked) [Compound 89] here?
**A.** 56%

**Q.** How did the inhibition at 1 µM turn out when `N#Cc1cccc(C(C(=O)NCC(c2ccccc2)c2ccccc2)N(CCc2c[nH]cn2)C(=O)Cc2c[nH]c3ccc(Br)cc23)c1` (centres unmarked) [Compound 85] was run?
**A.** 52%

**Q.** `N#Cc1cccc(C(C(=O)NC(c2ccccc2)c2ccccc2)N(CCc2c[nH]cn2)C(=O)c2ccccc2-c2ccccc2)c1` (centres unmarked) [Compound 88] was tested. Which inhibition at 1 µM did it give?
**A.** 53%

**Q.** How did the inhibition at 1 µM turn out when `COc1ccc(CCNC(=O)C(c2cccc(C#N)c2)N(CCc2c[nH]cn2)C(=O)c2cccc(Cl)c2)cc1` (centres unmarked) [Compound 79] was run?
**A.** 62%

**Q.** For `COc1ccc(CCNC(=O)C(c2cccc(C#N)c2)N(CCc2c[nH]cn2)C(=O)CCCc2c[nH]c3ccccc23)cc1` (centres unmarked) [Compound 76], which inhibition at 1 µM is on record?
**A.** 56%

**Q.** For `N#Cc1cccc(C(C(=O)NCC(c2ccccc2)c2ccccc2)N(CCc2c[nH]cn2)C(=O)CCCCc2ccccc2)c1` (centres unmarked) [Compound 60], which inhibition at 1 µM is on record?
**A.** 50%

**Q.** With `N#Cc1cccc(C(C(=O)NC(c2ccccc2)c2ccccc2)N(CCc2c[nH]cn2)C(=O)c2cccs2)c1` (centres unmarked) [Compound 90] as the compound, how does the inhibition at 1 µM read?
**A.** 51%

**Q.** Which inhibition at 1 µM does the source give for `CN(C)CCCN(C(=O)c1ccccc1C(=O)c1ccccc1)C(C(=O)NC(C)(C)CC(C)(C)C)c1cccc(C#N)c1` (centres unmarked) [Compound 63] here?
**A.** 55%

**Q.** `N#Cc1cccc(C(C(=O)NCC(c2ccccc2)c2ccccc2)N(CCc2c[nH]cn2)C(=O)c2cccc(F)c2)c1` (centres unmarked) [Compound 83] was tested. Which inhibition at 1 µM did it give?
**A.** 56%

**Q.** How did the inhibition at 1 µM turn out when `COc1ccc(CCNC(=O)C(c2cccc(C#N)c2)N(CCc2c[nH]cn2)C(=O)Cc2c[nH]c3ccc(Br)cc23)cc1` (centres unmarked) [Compound 78] was run?
**A.** 60%

**Q.** `CCCCc1ccc(C(=O)N(CCc2c[nH]cn2)C(C(=O)NCCC(c2ccccc2)c2ccccc2)c2ccccc2)cc1` (centres unmarked) [Compound 65] was tested. Which inhibition at 1 µM did it give?
**A.** 52%

**Q.** `N#Cc1cccc(C(C(=O)NCC(c2ccccc2)c2ccccc2)N(CCc2c[nH]cn2)C(=O)C(O)Cc2c[nH]c3ccccc23)c1` (centres unmarked) [Compound 82] was tested. Which inhibition at 1 µM did it give?
**A.** 55%

**Q.** For `COc1ccc(CCNC(=O)C(c2cccc(C#N)c2)N(CCc2c[nH]cn2)C(=O)CCC2CCCC2)cc1` (centres unmarked) [Compound 72], which inhibition at 1 µM is on record?
**A.** 57%

Same assay, conditions: Mus musculus, human TNF-α + actinomycin D, read-out: TNFα IC50

**Q.** With `Cc1nn(-c2nccc(-c3ccccn3)n2)c(C)c1Oc1ccc(CN2CCN(Cc3ccccc3)CC2)cc1` [Compound 104, 2-{4-[4-(4-Benzyl-piperazin-1-ylmethyl)-phenoxy]-3,5-dimethyl-pyrazol-1-yl}-4-pyridin-2-yl-pyrimidine] as the compound, how does the IC50 read?
**A.** 0.05 µM

**Q.** How did the IC50 turn out when `N#Cc1cccc(C(C(=O)NCC(c2ccccc2)c2ccccc2)N(CCN2CCOCC2)C(=O)c2ccccc2C(=O)c2ccccc2)c1` (centres unmarked) [Compound 11] was run?
**A.** 2.89 µM

**Q.** For `O=C(c1ccccc1)c1ccccc1C(=O)N(CCc1c[nH]cn1)C(Cc1cccc(C(F)(F)F)c1)C(=O)NCC(c1ccccc1)c1ccccc1` (centres unmarked) [Compound 28], which IC50 is on record?
**A.** 5.27 µM

**Q.** For `COc1ccc(CC(C(=O)NCC(c2ccccc2)c2ccccc2)N(CCc2c[nH]cn2)C(=O)c2ccccc2C(=O)c2ccccc2)cc1` (centres unmarked) [Compound 35], which IC50 is on record?
**A.** 2.64 µM

**Q.** With `Cn1cnc(CCN(C(=O)c2ccccc2C(=O)c2ccccc2)C(C(=O)NCC(c2ccccc2)c2ccccc2)c2cccc(C#N)c2)c1` (centres unmarked) [Compound 13] as the compound, how does the IC50 read?
**A.** 1.37 µM

**Q.** `Cc1nn(-c2ncnc(-c3ccccn3)n2)c(C)c1Sc1ccc(Cl)cc1` [Compound 141, 2-[4-(4-Chloro-phenylsulfanyl)-3,5-dimethyl-pyrazol-1-yl]-4-pyridin-2-yl-[1,3,5]triazine] was tested. Which IC50 did it give?
**A.** 0.0011 µM

**Q.** With `N#Cc1cccc(C(C(=O)NC(c2ccccc2)c2ccccc2)N(CCc2c[nH]cn2)C(=O)c2ccccc2C(=O)c2ccccc2)c1` (centres unmarked) [Compound 2] as the compound, how does the IC50 read?
**A.** 5.65 µM

**Q.** For `N#Cc1cccc(C(C(=O)NCC(c2ccccc2)c2ccccc2)N(CCc2c[nH]cn2)C(=O)c2ccccc2C(=O)c2ccc(Cl)cc2)c1` (centres unmarked) [Compound 20], which IC50 is on record?
**A.** 0.299 µM

**Q.** How did the IC50 turn out when `O=C(c1ccccc1)c1ccccc1C(=O)N(CCc1c[nH]cn1)C(C(=O)NCC(c1ccccc1)c1ccccc1)c1ccccc1` (centres unmarked) [Compound 5, 2-Benzoyl-N-[(2,2-diphenyl-ethylcarbamoyl)-phenyl-methyl]-N-[2-(1H-imidazol-4-yl)-ethyl]-benzamide] was run?
**A.** 0.872 µM

**Q.** For `O=C(c1ccccc1)c1ccccc1C(=O)N(CCc1c[nH]cn1)C(C(=O)NCC(c1ccccc1)c1ccccc1)c1cccc(Cl)c1` (centres unmarked) [Compound 16], which IC50 is on record?
**A.** 1.32 µM

**Q.** For `N#Cc1cccc(C(C(=O)NCC(c2ccccc2)c2ccccc2)N(CCc2c[nH]cn2)C(=O)c2ccccc2-c2ccco2)c1` (centres unmarked) [Compound 22], which IC50 is on record?
**A.** 3.85 µM

**Q.** For `N#Cc1cccc(C(C(=O)NCCc2ccccc2)N(CCc2c[nH]cn2)C(=O)c2ccccc2C(=O)c2ccccc2)c1` (centres unmarked) [Compound 1], which IC50 is on record?
**A.** 2.64 µM

**Q.** For `CN(C)CCN(C(=O)c1ccccc1C(=O)c1ccccc1)C(Cc1ccccc1)C(=O)NCC(c1ccccc1)c1ccccc1` (centres unmarked) [Compound 41], which IC50 is on record?
**A.** 6.49 µM

**Q.** With `O=C(c1ccccc1)c1ccccc1C(=O)N(CCc1c[nH]cn1)C(Cc1ccccc1Cl)C(=O)NCC(c1ccccc1)c1ccccc1` (centres unmarked) [Compound 30] as the compound, how does the IC50 read?
**A.** 2.36 µM

**Q.** `O=C(c1ccccc1)c1ccccc1C(=O)N(CCc1c[nH]cn1)C(Cc1cccc(F)c1)C(=O)NCC(c1ccccc1)c1ccccc1` (centres unmarked) [Compound 37] was tested. Which IC50 did it give?
**A.** 2.36 µM

**Q.** Which IC50 does the source give for `CN(CC(c1ccccc1)c1ccccc1)C(=O)C(c1ccccc1)N(CCc1c[nH]cn1)C(=O)c1ccccc1C(=O)c1ccccc1` (centres unmarked) [Compound 26, 2-Benzoyl-N-{[(2,2-diphenyl-ethyl)-methyl-carbamoyl]-phenyl-methyl}-N-[2-(1H-imidazol-4-yl)-ethyl]-benzamide] here?
**A.** 3.36 µM

**Q.** How did the IC50 turn out when `O=C(c1ccccc1)c1ccccc1C(=O)N(CCc1c[nH]cn1)C(Cc1ccc(F)cc1)C(=O)NCC(c1ccccc1)c1ccccc1` (centres unmarked) [Compound 38] was run?
**A.** 2.79 µM

**Q.** For `Cc1nn(-c2nc(N)nc(-c3ccccn3)n2)c(C)c1Cc1ccccc1` [Compound 142, 4-(4-Benzyl-3,5-dimethyl-pyrazol-1-yl)-6-pyridin-2-yl-[1,3,5]triazin-2-ylamine], which IC50 is on record?
**A.** 0.152 µM

**Q.** With `N#Cc1cccc(C(C(=O)NCC(c2ccccc2)c2ccccc2)N(CCc2c[nH]cn2)C(=O)c2ccccc2Cc2ccccc2)c1` (centres unmarked) [Compound 10] as the compound, how does the IC50 read?
**A.** 3.68 µM

**Q.** How did the IC50 turn out when `O=C(c1ccccc1)c1ccccc1C(=O)N(CCc1c[nH]cn1)C(Cc1ccccc1F)C(=O)NCC(c1ccccc1)c1ccccc1` (centres unmarked) [Compound 36] was run?
**A.** 2.15 µM

**Q.** Which IC50 does the source give for `CN(C)CCN(C(=O)c1ccccc1C(=O)c1ccccc1)C(C(=O)NCC(c1ccccc1)c1ccccc1)c1ccccc1` (centres unmarked) [Compound 56] here?
**A.** 6.63 µM

**Q.** Which IC50 does the source give for `CSc1ccc(C(C(=O)NCC(c2ccccc2)c2ccccc2)N(CCc2c[nH]cn2)C(=O)c2ccccc2C(=O)c2ccccc2)cc1` (centres unmarked) [Compound 12] here?
**A.** 5.15 µM

**Q.** For `[N-]=[N+]=Nc1cccc(C(C(=O)NCC(c2ccccc2)c2ccccc2)N(CCc2c[nH]cn2)C(=O)c2ccccc2C(=O)c2ccccc2)c1` (centres unmarked) [Compound 40], which IC50 is on record?
**A.** 1.74 µM

**Q.** With `COc1ccc(CCNC(=O)C(c2cccc(C#N)c2)N(CCc2c[nH]cn2)C(=O)c2ccccc2C(=O)c2ccccc2)cc1` (centres unmarked) [Compound 18] as the compound, how does the IC50 read?
**A.** 2.68 µM

**Q.** `N#Cc1cccc(C(C(=O)NCC(c2ccccc2)c2ccccc2)N(CCc2c[nH]cn2)C(=O)c2ccccc2C(=O)OCc2ccccc2)c1` (centres unmarked) [Compound 55] was tested. Which IC50 did it give?
**A.** 7.64 µM

**Q.** Which IC50 does the source give for `COc1cccc(CC(C(=O)NCC(c2ccccc2)c2ccccc2)N(CCc2c[nH]cn2)C(=O)c2ccccc2C(=O)c2ccccc2)c1` (centres unmarked) [Compound 34] here?
**A.** 1.54 µM

**Q.** With `N#Cc1cccc(C(C(=O)NCCC(c2ccccc2)c2ccccc2)N(CCc2c[nH]cn2)C(=O)c2ccccc2C(=O)c2ccccc2)c1` (centres unmarked) [Compound 4] as the compound, how does the IC50 read?
**A.** 0.941 µM

**Q.** Which IC50 does the source give for `N#Cc1cccc(C(C(=O)NCC(c2ccccc2)c2ccccc2)N(CCc2c[nH]cn2)C(=O)c2ccccc2COc2ccccc2)c1` (centres unmarked) [Compound 53] here?
**A.** 7.13 µM

Source: patent US9579325B2, “Modulators of TNF-α signaling” (Genzyme Corporation, priority 2000, dated 2017)
